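1) Cells in 96-well plates. 2) Compound, 48 h, 5 concentrations. 3) Linear interpolation between surrounding doses. 4) Unreached endpoint = highest concentration. Here, GI50 denotes the concentration required for 50% inhibition of growth. The concentration for full growth arrest is given as TGI.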
Assays:
Assay in all cases: DTP human tumour cell line panel, 48 h
[1] = system: TK-10 renal
[2] = system: OVCAR-8 ovarian
[3] = system: MDA-MB-435
[4] = system: CAKI-1 renal
[5] = system: RPMI-8226 leukemia
[6] = system: SN12C renal
[7] = system: OVCAR-3 ovarian
[8] = system: MCF7 breast
[9] = system: BT-549 breast
[10] = system: SF-268 CNS
[11] = system: A498 renal
[12] = system: SNB-19 CNS
[13] = system: NCI-H522 lung
[14] = system: HS 578T breast
[15] = system: MALME-3M melanoma
[16] = system: KM12 colon
[17] = system: UACC-62 melanoma
[18] = system: IGROV1 ovarian
[19] = system: SK-MEL-5 melanoma
[20] = system: SR leukemia
[21] = system: DU-145 prostate
[22] = system: NCI-H226 lung
[23] = system: HL-60(TB) leukemia
[24] = system: T-47D breast
[25] = system: SW-620 colon
[26] = system: HOP-92 NSCLC
[27] = system: SNB-75 CNS
[28] = system: SF-539 CNS
[29] = system: UACC-257 melanoma
[30] = system: MDA-MB-231 breast
[31] = system: HCT-15 colon
[32] = system: CCRF-CEM leukemia
[33] = system: HOP-62 NSCLC
[34] = system: OVCAR-5 ovarian
[35] = system: COLO 205 colon
[36] = system: MOLT-4 leukemia
[37] = system: NCI/ADR-RES ovarian
[38] = system: NCI-H23 lung
[39] = system: K-562 leukemia
[40] = system: SK-OV-3 ovarian
[41] = system: SK-MEL-28 melanoma
[42] = system: LOX IMVI melanoma
[43] = system: A549 NSCLC
[44] = system: ACHN renal
[45] = system: HT29 colon
[46] = system: NCI-H460 lung
[47] = system: U251 CNS
[48] = system: SF-295 CNS
[49] = system: HCT-116 colon
[50] = system: RXF 393 renal
[51] = system: UO-31 renal
[52] = system: OVCAR-4 ovarian
[53] = system: SK-MEL-2 melanoma
[54] = system: 786-0 renal
[55] = system: HCC-2998 colon
[56] = system: PC-3 prostate

O=c1cc(NC2CCN(CCCc3ccccc3)CC2)c2cc(Cl)ccc2o1
GI50 [1]: 13.4 µM | TGI [1]: 26.6 µM | GI50 [2]: 12.1 µM | TGI [2]: 27.2 µM | GI50 [3]: 5.26 µM | TGI [3]: 18.1 µM | GI50 [4]: 12.4 µM | TGI [4]: 25.6 µM | GI50 [5]: 16.5 µM | TGI [5]: 43.4 µM | GI50 [6]: 13 µM | TGI [6]: 28.2 µM | GI50 [7]: 6.6 µM | TGI [7]: 19.4 µM | GI50 [8]: 9.42 µM | TGI [8]: 26.9 µM | GI50 [9]: 12.9 µM | TGI [9]: 26.8 µM | GI50 [10]: 14.3 µM | TGI [10]: 28.3 µM | GI50 [11]: 0.0423 µM | TGI [11]: 6.92 µM | GI50 [12]: 13.4 µM | TGI [12]: 29.8 µM | GI50 [13]: 8.35 µM | TGI [13]: 23.5 µM | GI50 [14]: 15.1 µM | TGI [14]: 36 µM | GI50 [15]: 11.2 µM | TGI [15]: 25.4 µM | GI50 [16]: 12.5 µM | TGI [16]: 25 µM | GI50 [17]: 15.1 µM | TGI [17]: 29.8 µM | GI50 [18]: 11.3 µM | TGI [18]: 26.6 µM | GI50 [19]: 12 µM | TGI [19]: 24.4 µM | GI50 [20]: 6.81 µM | TGI [20]: 28.3 µM | GI50 [21]: 15.8 µM | TGI [21]: 29.3 µM | GI50 [22]: 15.6 µM | TGI [22]: 39.6 µM | GI50 [23]: 20.5 µM | TGI [23]: 49.3 µM | GI50 [24]: 12.5 µM | TGI [24]: 38.4 µM | GI50 [25]: 15 µM | TGI [25]: 30.5 µM | GI50 [26]: 11.9 µM | TGI [26]: 27.7 µM | GI50 [27]: 8.1 µM | TGI [27]: 21.1 µM | GI50 [28]: 12.3 µM | TGI [28]: 25.3 µM | GI50 [29]: 15.4 µM | TGI [29]: 30 µM | GI50 [30]: 9.42 µM | TGI [30]: 22.9 µM | GI50 [31]: 3.89 µM | TGI [31]: 17.4 µM | GI50 [32]: 18.2 µM | TGI [32]: 79.3 µM | GI50 [33]: 17.3 µM | TGI [33]: 33.3 µM | GI50 [34]: 10.8 µM | TGI [34]: 24.6 µM | GI50 [35]: 9.98 µM | TGI [35]: 23.2 µM | GI50 [36]: 8.26 µM | TGI [36]: 37.9 µM | GI50 [37]: 15 µM | TGI [37]: 30.4 µM | GI50 [38]: 14.6 µM | TGI [38]: 30.3 µM | GI50 [39]: 3.86 µM | TGI [39]: 20.5 µM | GI50 [40]: 16.1 µM | TGI [40]: 29.8 µM | GI50 [41]: 11.1 µM | TGI [41]: 23.9 µM | GI50 [42]: 5.8 µM | TGI [42]: 19.2 µM | GI50 [43]: 13.4 µM | TGI [43]: 28.6 µM | GI50 [44]: 4.86 µM | TGI [44]: 17.6 µM | GI50 [45]: 4.6 µM | TGI [45]: 19.5 µM | GI50 [46]: 15.7 µM | TGI [46]: 29.6 µM | GI50 [47]: 9.19 µM | TGI [47]: 21.3 µM | GI50 [48]: 15.1 µM | TGI [48]: 29.9 µM | GI50 [49]: 4.02 µM | TGI [49]: 16.5 µM | GI50 [50]: 5.88 µM | TGI [50]: 21.2 µM | GI50 [51]: 4.39 µM | TGI [51]: 17.8 µM | GI50 [52]: 13.2 µM | TGI [52]: 35.6 µM | GI50 [53]: 18.4 µM | TGI [53]: 33.1 µM | GI50 [54]: 6.55 µM | TGI [54]: 21.2 µM | GI50 [55]: 13 µM | TGI [55]: 27.3 µM | GI50 [56]: 12.9 µM | TGI [56]: 26.9 µM

Reference: PubChem BioAssay (NCI)
